Assay results as given in US20260125371A1, “METHOD FOR INHIBITING CLOSTRIDIOIDES DIFFICILE SPORE GERMINATION” (UNIVERSITY OF NOTRE DAME DU LAC, priority 2022, published 2026).
Read-outs that look alike come from different tables or passages of the source.

Columns and labels:
C. difficile ATCC 43255 = assay: Determination of minimal-inhibitory concentrations (microdilution), C. difficile ATCC 43255; type: cell-based, Clostridioides difficile; conditions: for MIC: Clostridioides difficile
S. aureus = assay: MIC against S. aureus strains; type: cell-based; conditions: S. aureus ATCC 29213, 24 h; for MIC: Staphylococcus aureus, ATCC29213, 24 h, read-out: MIC (μg/mL) 24 h
C. difficile strains = assay: MIC (microdilution) against panel of 101 C. difficile strains; type: cell-based, Clostridioides difficile; conditions: Clostridioides difficile
[1] = C. difficile ATCC 43255, 48-h incubation
[2] = ATCC43255, 24 h, C. difficile ATCC 43255, 24 h, read-out: MIC (μg/mL) 24 h
[3] = ATCC43255, 48 h, C. difficile ATCC 43255, 48-h incubation, read-out: MIC (μg/mL) 48 h

FC(F)(F)c1ccc(Oc2ccc(-c3noc(-c4cc[nH]n4)n3)cc2)cc1 [Compound 25]
>128 µg/mL: MIC (μg/mL) 48 h (C. difficile ATCC 43255; [1]) | MIC (μg/mL) 24 h (C. difficile ATCC 43255; C. difficile ATCC 43255, 24 h) | MIC (μg/mL) 24 h (S. aureus)

CCOc1ccc(-c2noc(-c3ccc(O)cc3)n2)cc1 [Compound 86, 4-(3-(4-Ethoxyphenyl)-1,2,4-oxadiazol-5-yl)phenol]
> 128 µg/mL: MIC (C. difficile ATCC 43255; [2]) | MIC (C. difficile ATCC 43255; [3]) | MIC (S. aureus)

FC(F)(F)c1ccc(Oc2ccc(-c3noc(-c4cn[nH]n4)n3)cc2)cc1 [Compound 35]
>128 µg/mL: MIC (μg/mL) 48 h (C. difficile ATCC 43255; [1]) | MIC (μg/mL) 24 h (C. difficile ATCC 43255; C. difficile ATCC 43255, 24 h)
16 µg/mL: MIC (μg/mL) 24 h (S. aureus)

Nc1c[nH]nc1-c1nc(-c2ccc(Oc3ccc(C(F)(F)F)cc3)cc2)no1 [Compound 37]
>128 µg/mL: MIC (μg/mL) 48 h (C. difficile ATCC 43255; [1]) | MIC (μg/mL) 24 h (C. difficile ATCC 43255; C. difficile ATCC 43255, 24 h)
4 µg/mL: MIC (μg/mL) 24 h (S. aureus)

CCCOc1ccc(-c2noc(-c3ccc(O)cc3)n2)cc1 [Compound 87, 4-(3-(4-Propoxyphenyl)-1,2,4-oxadiazol-5-yl)phenol]
4 µg/mL: MIC (C. difficile ATCC 43255; [2])
> 128 µg/mL: MIC (C. difficile ATCC 43255; [3])
128 µg/mL: MIC (S. aureus)

Nc1ccc(-c2nc(-c3ccc(OC4CCCC4)cc3)no2)cc1 [Compound 51, 4-(3-(4-(Cyclopentyloxy)phenyl)-1,2,4-oxadiazol-5-yl) aniline]
>128 µg/mL: MIC (μg/mL) 48 h (C. difficile ATCC 43255; [1])
2 µg/mL: MIC (C. difficile ATCC 43255; [2])
4 µg/mL: MIC (S. aureus)

Nc1cc(-c2nc(-c3ccc(Oc4ccc(C(F)(F)F)cc4)cc3)no2)ccn1 [Compound 24]
>128 µg/mL: MIC (μg/mL) 48 h (C. difficile ATCC 43255; [1]) | MIC (μg/mL) 24 h (C. difficile ATCC 43255; C. difficile ATCC 43255, 24 h) | MIC (μg/mL) 24 h (S. aureus)

Oc1ccc(-c2nc(-c3ccc(OC4CCC4)cc3)no2)cc1 [Compound 93, 4-(3-(4-Cyclobutoxyphenyl)-1,2,4-oxadiazol-5-yl)phenol]
> 128 µg/mL: MIC (C. difficile ATCC 43255; [2]) | MIC (C. difficile ATCC 43255; [3]) | MIC (S. aureus)

FC(F)(F)c1ccc(Oc2ccc(-c3noc(-c4c[nH]c5ncccc45)n3)cc2)cc1 [Compound 46]
>128 µg/mL: MIC (μg/mL) 48 h (C. difficile ATCC 43255; [1]) | MIC (μg/mL) 24 h (C. difficile ATCC 43255; C. difficile ATCC 43255, 24 h) | MIC (μg/mL) 24 h (S. aureus)

Oc1ccc(-n2cc(-c3ccc(Oc4ccccc4)cc3)nn2)cc1 [Compound 136, 4-(4-(4-Phenoxyphenyl)-1H-1,2,3-triazol-1-yl)phenol]
> 128 µg/mL: MIC (C. difficile ATCC 43255; [2]) | MIC (S. aureus)
>128 µg/mL: MIC (μg/mL) 48 h (C. difficile ATCC 43255; [1])

c1cc(-c2noc(-c3ccc4c(c3)CCN4)n2)ccc1OC1CCCC1 [Compound 54, 3-(4-(Cyclopentyloxy)phenyl)-5-(indolin-5-yl)-1,2,4-oxadiazole]
8 mg/L: MIC (C. difficile strains; strain HM-89) | MIC (C. difficile strains; strain NR49292) | MIC (C. difficile strains; strain NR49305) | MIC (C. difficile strains; strain NR49318) | MIC (C. difficile strains; strain NR-13427) | MIC (C. difficile strains; strain NR-13428) | MIC (C. difficile strains; strain NR-13430) | MIC (C. difficile strains; strain NR-13436) | MIC (C. difficile strains; strain NR-13437) | MIC (C. difficile strains; strain NR-13438) | MIC (C. difficile strains; strain NR-32885) | MIC (C. difficile strains; strain NR-32886) | MIC (C. difficile strains; strain NR-32888) | MIC (C. difficile strains; strain NR-32895) | MIC (C. difficile strains; strain NR-49296) | MIC (C. difficile strains; strain NR-49298) | MIC (C. difficile strains; strain NR-49299) | MIC (C. difficile strains; strain NR-49300) | MIC (C. difficile strains; strain NR-49301) | MIC (C. difficile strains; strain NR-49304) | MIC (C. difficile strains; strain NR-49309) | MIC (C. difficile strains; strain NR-49324) | MIC (C. difficile strains; strain NR-49326) | MIC (C. difficile strains; strain NR-49327) | MIC (C. difficile strains; strain NR-49328) | MIC (C. difficile strains; strain NR-49329) | MIC (C. difficile strains; strain RMA23828) | MIC (C. difficile strains; strain RMA26675) | MIC (C. difficile strains; strain RMA27081) | MIC90 (C. difficile strains; C. difficile strains of Table 4, read-out: MIC90)
2 mg/L: MIC (C. difficile strains; ATCC43598, strain ATCC43598) | MIC (C. difficile strains; BAA1803, strain BAA-1803) | MIC (C. difficile strains; BAA1804, strain BAA-1804) | MIC (C. difficile strains; BAA1812, strain BAA-1812) | MIC (C. difficile strains; strain HM-745) | MIC (C. difficile strains; strain HM-746) | MIC (C. difficile strains; strain NR49294) | MIC (C. difficile strains; strain NR-32903) | MIC (C. difficile strains; strain NR-49280) | MIC (C. difficile strains; strain NR-49282) | MIC (C. difficile strains; strain NR-49283) | MIC (C. difficile strains; strain NR-49286) | MIC (C. difficile strains; strain NR-49293) | MIC (C. difficile strains; strain NR-49307) | MIC (C. difficile strains; strain NR-49308) | MIC (C. difficile strains; strain NR-49315) | MIC (C. difficile strains; strain NR-49317) | MIC (C. difficile strains; strain RMA23691) | MIC (C. difficile strains; strain RMA24531) | MIC (C. difficile strains; strain RMA24923)
8 µg/mL: MIC (C. difficile ATCC 43255; [3])
4 mg/L: MIC (C. difficile strains; BAA1801, strain BAA-1801) | MIC (C. difficile strains; BAA1814, strain BAA-1814) | MIC (C. difficile strains; BAA1870, strain BAA-1870) | MIC (C. difficile strains; strain HM-88) | MIC (C. difficile strains; strain NR49302) | MIC (C. difficile strains; strain NR49310) | MIC (C. difficile strains; strain NR-13429) | MIC (C. difficile strains; strain NR-13431) | MIC (C. difficile strains; strain NR-13433) | MIC (C. difficile strains; strain NR-13434) | MIC (C. difficile strains; strain NR-13435) | MIC (C. difficile strains; strain NR-13553) | MIC (C. difficile strains; strain NR-32882) | MIC (C. difficile strains; strain NR-32883) | MIC (C. difficile strains; strain NR-32884) | MIC (C. difficile strains; strain NR-32887) | MIC (C. difficile strains; strain NR-32889) | MIC (C. difficile strains; strain NR-32890) | MIC (C. difficile strains; strain NR-32891) | MIC (C. difficile strains; strain NR-32892) | MIC (C. difficile strains; strain NR-32896) | MIC (C. difficile strains; strain NR-32897) | MIC (C. difficile strains; strain NR-32900) | MIC (C. difficile strains; strain NR-32904) | MIC (C. difficile strains; strain NR-49277) | MIC (C. difficile strains; strain NR-49278) | MIC (C. difficile strains; strain NR-49279) | MIC (C. difficile strains; strain NR-49281) | MIC (C. difficile strains; strain NR-49284) | MIC (C. difficile strains; strain NR-49285) | MIC (C. difficile strains; strain NR-49287) | MIC (C. difficile strains; strain NR-49288) | MIC (C. difficile strains; strain NR-49289) | MIC (C. difficile strains; strain NR-49290) | MIC (C. difficile strains; strain NR-49291) | MIC (C. difficile strains; strain NR-49295) | MIC (C. difficile strains; strain NR-49297) | MIC (C. difficile strains; strain NR-49303) | MIC (C. difficile strains; strain NR-49306) | MIC (C. difficile strains; strain NR-49311) | MIC (C. difficile strains; strain NR-49312) | MIC (C. difficile strains; strain NR-49313) | MIC (C. difficile strains; strain NR-49314) | MIC (C. difficile strains; strain NR-49316) | MIC (C. difficile strains; strain NR-49319) | MIC (C. difficile strains; strain NR-49320) | MIC (C. difficile strains; strain NR-49321) | MIC (C. difficile strains; strain NR-49323) | MIC (C. difficile strains; strain NR-49325) | MIC (C. difficile strains; strain RMA27173) | MIC50 (C. difficile strains; C. difficile strains of Table 4, read-out: MIC50)
4 µg/mL: MIC (C. difficile ATCC 43255; [2])
1 mg/L: MIC (C. difficile strains; strain HM-747)
2 µg/mL: MIC (C. difficile ATCC 43255; ATCC43255, strain ATCC43255, read-out: MIC)
